Where two headings read alike, the source gives them in different places.
What was measured:
[1] = Chemical stability assessment in formulation (UPLC-UV-MS purity loss at 37° C.); assay type: physicochemical; settings: 8 mM phosphate buffer pH 7.4, 1 mg/mL, 2 weeks
Procedure, shortened: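 Degradation tracked by UPLC-UV-MS (formic acid/acetonitrile gradient) on samples drawn over 2 weeks at 37° C. Solutions were made at a 1 mg/mL target in 8 mM phosphate, pH 7.4, kept in sealed vials and frozen after sampling.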

[2] = Pharmacokinetic study in minipigs (i.v.); assay type: in vivo, Göttingen minipigs; settings: i.v. administration to minipigs, 2 nmol/kg
Description: This is done in a pharmacokinetic (PK) study, where the terminal half-life (t1/2) of the compound or derivative in question is determined. By terminal half-life is meant the time it takes to halve a certain plasma concentration in the terminal elimination phase.
Female Göttingen minipigs, obtained from Ellegaard Göttingen Minipigs (Dalmose, Denmark), approximately 8-12 months of age and weighing approximately 20-30 kg were used in the studies.
After three weeks of acclimatisation two permanent central venous catheters were implanted in vena cava caudalis in each animal. The animals were allowed at least 10 days recovery after the surgery and were then used for repeated pharmacokinetic studies with a suitable wash-out period between successive dosing.
The compounds of the invention were formulated (40 nmol/ml) in the following vehicle: 8 mM phosphate; 250 mM glycerol; 0.007% polysorbate 20, pH 7.4.
Blood samples (for example 1.3 ml) were collected in EDTA (1.3 ml tube containing K3EDTA to yield 1.6 mg K3EDTA/ml blood) coated tubes and then centrifuged at 4° C. and 2000×g for 10 minutes.
Plasma was within 30 min after centrifugation pipetted into Micronic tubes stored on dry ice and were afterwards kept at −20° C. until analysed for plasma concentration of the compounds using LCMS.
Plasma concentrations of the peptides of the invention were assayed by plasma protein precipitation and analysed by liquid chromatography mass spectrometry (LC-MS). Calibrators were prepared by spiking blank plasma from minipigs with the compounds in the typical range from 0.05 to 200 nM. […] The supernatant was diluted with 1 volumes of Milli-Q water containing 1% Formic acid before injection on the LC-MS system. Individual plasma concentration-time profiles were analysed by a non-compartmental pharmacokinetic method (NCA) in Phoenix v. 6.4 (Pharsight Inc., Mountain View, CA, USA), and the resulting terminal half-lives (harmonic mean) determined. The LC-MS analysis was carried out using a TurboFlow HPLC system from Thermo Fisher Scientific (Bremen, Germany) coupled to either a Q Exactive Orbitrap or Altis Triple Quadrupole (TQ) Mass Spectrometer. […] The Orbitrap mass spectrometer were operating in positive ionization mode with a spray voltage of 4.0 kV using Parallel Reaction Monitoring scan mode using 5 m/z isolation windows on the most abundant charge state of the compounds with a resolution of 35K on the Orbitrap MS.
The data was processed using the Quan Browser in the Xcalibur software from Thermo Fisher Scientific (Bremen, Germany) by fitted the data to linear calibration curves (weighed 1/x^2), used for calculating the concentration in the plasma samples. Quality control samples were included.

[3] = target: T1, human GIP receptor (hGIPR) (Homo sapiens, UniProt P48546); test: GIP receptor assay, method B (CRE-luciferase reporter, BHK cells, 384-well); assay type: cell-based
T1 construct: expressed in transfected cells
T1 sequence (P48546 22-466): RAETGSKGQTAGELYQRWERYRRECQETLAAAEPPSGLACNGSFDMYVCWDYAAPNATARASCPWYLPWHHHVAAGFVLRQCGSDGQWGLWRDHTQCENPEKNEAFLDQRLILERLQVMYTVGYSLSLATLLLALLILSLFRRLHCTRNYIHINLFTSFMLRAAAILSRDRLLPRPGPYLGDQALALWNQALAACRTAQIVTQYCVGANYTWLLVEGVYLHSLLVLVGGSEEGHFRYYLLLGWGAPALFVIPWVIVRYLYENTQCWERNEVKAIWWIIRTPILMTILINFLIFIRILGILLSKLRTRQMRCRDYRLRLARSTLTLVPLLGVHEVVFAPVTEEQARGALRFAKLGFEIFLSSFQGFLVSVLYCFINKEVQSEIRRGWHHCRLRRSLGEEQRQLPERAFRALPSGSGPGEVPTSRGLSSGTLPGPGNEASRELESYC
Description: To assess how the activation of the receptors is potentially influenced by the presence of human serum albumin (HSA), the in vitro assays were performed in the absence of HSA and presence of 1% (w/v) HSA.
Activation of the human GIP receptor leads to increased intra-cellular concentrations of cyclic AMP (cAMP) and the consequent transcription activation from promoters containing multiple copies of the cAMP response element (CRE). It is thus possible to measure GIP receptor activity using a CRE-luciferase reporter gene introduced into Baby Hamster Kidney (BHK) cells co-expressing the human GIP receptor.
Cells at about 80-90% confluency were washed once with PBS (Gibco 14190-094) and detached from the cell flasks with Versene (Gibco, 15040-066). After centrifugation, the cells were counted, resuspended and diluted to approximately 1.5-3.0×10^6 (1.5E+6 to 3.0E+6) cells/mL in Recovery Cell Culture Freezing Medium (Gibco, 12648-010) and stored at −180° C. in suitable aliquots until use.
The assay buffer consisted of DMEM without phenol red (Gibco, 11880-028) supplemented with 1× GlutaMAX (Gibco, 35050-038), 10 mM HEPES (Gibco, 15630-056), 1% (w/v) ovalbumin (Sigma, A5503) and 0.1% (v/v) Pluronic F-68 (Gibco, 24040-032) either with HSA or without HSA (Sigma, A9511).
Serial dilutions were transferred to a 384-well assay plate (PerkinElmer/Revvity, 6007688) and mixed with an equal volume (10 μL) of assay buffer without or with 3% HSA (Sigma, A-9511). Frozen stocks of hGIPR BHK Cre-Luc cells were thawed in a 37° C. water bath, washed once in PBS (Gibco 14190-094), diluted to 1.5×10^5 (1.5E+5) cells/mL in assay buffer (without HSA) and added (10 μL) to each well of the 384-well assay plate. After a short centrifugation, the assay plates were incubated for 3 hours at 37° C. in 5% CO2 and let to equilibrated at room temperature for 10 minutes before the addition of 30 μL steadylite Plus™ (PerkinElmer/Revvity, 6066759) per well. Plates were sealed and incubated at room temperature with gentle shaking for 30 minutes while protected from light. Luminescence was detected on a luminescence plate reader e.g. a Synergy 2 (BioTek).

[4] = target: T2, human amylin receptor (hAMYR3) (Homo sapiens, UniProt O60896+P30988); test: Amylin receptor assay, method B (CRE-luciferase reporter, BHK cells); assay type: cell-based
T2 construct: host or cells: BHK cells (Hollex-1 line expressing hCTR(a) and CRE-Luc), further transfected with human RAMP3
Procedure, shortened: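 BHK cells with CRE-luciferase, co-expressing hAMYR3 and transfected with human RAMP3, seeded overnight, then exposed 3 h at 37 °C to compound. Buffer: phenol red-free DMEM, 10 mM HEPES, 1% ovalbumin, with 0% or 1% (w/v) HSA. Luminescence read after 30 min with steadylite Plus.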

[5] = target: T3, human GLP-1 receptor (hGLP-1R) (Homo sapiens, UniProt P43220); test: GLP-1 receptor assay, method B (CRE-luciferase reporter, BHK cells, 384-well); assay type: cell-based; settings: hGLP-1R Potency, 1% HSA, EC50, methods B, in the presence of 1% HSA
T3 construct: expressed in transfected cells
T3 sequence (P43220 24-463): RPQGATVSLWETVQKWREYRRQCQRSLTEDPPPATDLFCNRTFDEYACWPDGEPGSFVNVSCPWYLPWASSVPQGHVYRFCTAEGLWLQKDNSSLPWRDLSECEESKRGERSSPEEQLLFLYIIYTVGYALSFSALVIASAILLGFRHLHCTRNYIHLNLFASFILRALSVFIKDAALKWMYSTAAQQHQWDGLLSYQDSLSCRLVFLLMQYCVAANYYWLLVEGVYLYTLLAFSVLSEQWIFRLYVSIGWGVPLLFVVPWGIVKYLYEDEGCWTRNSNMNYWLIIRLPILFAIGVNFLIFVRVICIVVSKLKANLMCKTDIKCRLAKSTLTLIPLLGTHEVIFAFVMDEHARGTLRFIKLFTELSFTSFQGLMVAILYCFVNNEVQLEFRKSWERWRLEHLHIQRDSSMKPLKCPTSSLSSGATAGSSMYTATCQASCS

T2 sequence (P30988 25-474): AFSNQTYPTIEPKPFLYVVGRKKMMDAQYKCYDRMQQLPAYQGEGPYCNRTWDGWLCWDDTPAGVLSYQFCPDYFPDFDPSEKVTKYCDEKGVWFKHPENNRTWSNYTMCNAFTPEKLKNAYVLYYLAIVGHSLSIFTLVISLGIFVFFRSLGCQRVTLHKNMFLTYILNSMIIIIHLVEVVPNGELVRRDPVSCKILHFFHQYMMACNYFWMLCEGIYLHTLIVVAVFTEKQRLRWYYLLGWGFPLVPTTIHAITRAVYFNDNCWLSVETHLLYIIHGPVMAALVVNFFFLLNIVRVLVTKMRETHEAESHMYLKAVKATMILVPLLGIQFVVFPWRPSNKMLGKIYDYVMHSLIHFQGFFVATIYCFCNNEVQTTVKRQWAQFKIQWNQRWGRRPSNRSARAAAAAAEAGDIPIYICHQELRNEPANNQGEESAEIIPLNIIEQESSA
T2 sequence (O60896 24-148): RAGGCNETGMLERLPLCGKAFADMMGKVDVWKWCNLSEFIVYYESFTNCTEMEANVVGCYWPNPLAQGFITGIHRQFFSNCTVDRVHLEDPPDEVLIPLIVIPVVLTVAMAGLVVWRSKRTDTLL

Purity loss per week at 37° C. [1] [%] | Terminal half-life t1/2 [2] [h] | EC50 ([3]; hGIPR Potency, 1% HSA, EC50, methods B, in the presence of 1% HSA) [nM] | EC50 ([3]; method B, absence of HSA, read-out: hGIPR Potency, no HSA, EC50) [nM] | EC50 ([4]; hAMYR3 Potency, 1% HSA, EC50, methods B, in the presence of 1% HSA) [nM] | EC50 ([4]; method B, absence of HSA, read-out: hAMYR3 Potency, no HSA, EC50) [nM] | EC50 [5] [nM] | Compound
0.5 | 100 |  |  |  |  |  | CC[C@H](C)[C@H](NC(=O)[C@H](CCC(=O)O)NC(=O)[C@H](CCC(=O)O)NC(=O)[C@H](CC(C)C)NC(=O)[C@H](CC(C)C)NC(=O)[C@@H](NC(=O)[C@H](CO)NC(=O)[C@H](Cc1ccc(O)cc1)NC(=O)[C@H](CC(=O)O)NC(=O)[C@H](CO)NC(=O)[C@@H](NC(=O)[C@H](Cc1ccccc1)NC(=O)[C@@H](NC(=O)CNC(=O)[C@H](CCC(=O)O)NC(=O)C(C)(C)NC(=O)[C@@H](N)Cc1ccc(O)cc1)[C@@H](C)O)[C@@H](C)O)[C@@H](C)CC)C(=O)N[C@@H](C)C(=O)N[C@@H](C)C(=O)N[C@@H](CCCNC(=N)N)C(=O)N[C@@H](CCC(=O)O)C(=O)N[C@@H](Cc1ccccc1)C(=O)N[C@H](C(=O)N[C@@H](CCC(=O)O)C(=O)N[C@@H](Cc1c[nH]c2ccccc12)C(=O)N[C@@H](CC(C)C)C(=O)N[C@@H](CC(C)C)C(=O)N[C@@H](C)C(=O)NCC(=O)NCC(=O)N1CCC[C@H]1C(=O)N[C@@H](CO)C(=O)N[C@@H](CO)C(=O)NCC(=O)N[C@@H](C)C(=O)NCC(=O)N[C@@H](CCC(N)=O)C(=O)N[C@@H](C)C(=O)N1CCC[C@H]1C(=O)NCC(=O)N[C@@H](CCC(N)=O)C(=O)N[C@@H](C)C(=O)N1CCC[C@H]1C(=O)N[C@@H](CC(C)C)C(=O)N[C@@H](C)C(=O)N[C@@H](CO)C(=O)N[C@@H](Cc1c[nH]cn1)C(=O)N[C@@H](CC(C)C)C(=O)N[C@@H](CO)C(=O)N[C@H](C(=O)N[C@@H](C)C(=O)N[C@@H](CCC(N)=O)C(=O)N[C@H](C(=O)N[C@@H](CCC(N)=O)C(=O)N[C@@H](CCCNC(=N)N)C(=O)N[C@@H](CC(C)C)C(=O)N[C@@H](CO)C(=O)N[C@@H](C)C(=O)N[C@@H](CCC(=O)O)C(=O)N[C@@H](CC(C)C)C(=O)N[C@@H](Cc1c[nH]cn1)C(=O)N[C@@H](CCCCNC(=O)COCCOCCNC(=O)COCCOCCNC(=O)CC[C@H](NC(=O)CCCCCCCCCCCCCCCCCCC(=O)O)C(=O)O)C(=O)N[C@@H](CC(C)C)C(=O)N[C@@H](C)C(=O)N[C@H](C(=O)N[C@@H](CC(C)C)C(=O)N1CCC[C@H]1C(=O)N[C@@H](CCCNC(=N)N)C(=O)N[C@H](C(=O)N[C@@H](CCC(=O)O)C(=O)N[C@H](C(=O)NCC(=O)N[C@@H](CO)C(=O)NCC(=O)N[C@@H](CO)C(=O)N1CCC[C@H]1C(N)=O)[C@@H](C)O)[C@@H](C)O)[C@@H](C)O)[C@@H](C)O)[C@@H](C)O)[C@@H](C)CC [Compound 125]
1.3 |  | 0.0714 | 0.002 | 0.108 | 0.0062 | 0.744 | CC[C@H](C)[C@H](NC(=O)[C@H](CCC(=O)O)NC(=O)[C@H](CCC(=O)O)NC(=O)[C@H](CC(C)C)NC(=O)[C@H](CC(C)C)NC(=O)[C@H](CCCCNC(=O)COCCOCCNC(=O)COCCOCCNC(=O)CC[C@H](NC(=O)CCCCCCCCCCCCCCCCCCC(=O)O)C(=O)O)NC(=O)[C@H](CO)NC(=O)[C@H](Cc1ccc(O)cc1)NC(=O)[C@H](CC(=O)O)NC(=O)[C@H](CO)NC(=O)[C@@H](NC(=O)[C@H](Cc1ccccc1)NC(=O)[C@@H](NC(=O)CNC(=O)[C@H](CCC(=O)O)NC(=O)C(C)(C)NC(=O)[C@@H](N)Cc1ccc(O)cc1)[C@@H](C)O)[C@@H](C)O)C(=O)N[C@@H](C)C(=O)N[C@@H](C)C(=O)N[C@@H](CCCNC(=N)N)C(=O)N[C@@H](CCC(=O)O)C(=O)N[C@@H](Cc1ccccc1)C(=O)N[C@H](C(=O)N[C@@H](CCC(=O)O)C(=O)N[C@@H](Cc1c[nH]c2ccccc12)C(=O)N[C@@H](CC(C)C)C(=O)N[C@@H](CC(C)C)C(=O)N[C@@H](C)C(=O)NCC(=O)NCC(=O)N1CCC[C@H]1C(=O)N[C@@H](CO)C(=O)N[C@@H](CO)C(=O)NCC(=O)N[C@@H](C)C(=O)NCC(=O)N[C@@H](C)C(=O)N[C@@H](CO)C(=O)N[C@@H](CCC(=O)O)C(=O)N[C@@H](CC(C)C)C(=O)N[C@@H](CO)C(=O)N[C@H](C(=O)N[C@@H](C)C(=O)N[C@@H](CCC(N)=O)C(=O)N[C@@H](CC(C)C)C(=O)NCC(=O)N[C@@H](CCCNC(=N)N)C(=O)N[C@@H](CC(C)C)C(=O)N[C@@H](CO)C(=O)N[C@@H](C)C(=O)N[C@@H](CCC(=O)O)C(=O)N[C@@H](CC(C)C)C(=O)N[C@@H](Cc1c[nH]cn1)C(=O)N[C@@H](CCC(N)=O)C(=O)N[C@@H](CC(C)C)C(=O)N[C@@H](C)C(=O)N[C@H](C(=O)N[C@@H](CC(C)C)C(=O)N1CCC[C@H]1C(=O)N[C@@H](CCCNC(=N)N)C(=O)N[C@H](C(=O)N[C@@H](CCC(=O)O)C(=O)N[C@H](C(=O)NCC(=O)N[C@@H](CO)C(=O)NCC(=O)N[C@@H](CO)C(=O)N1CCC[C@H]1C(N)=O)[C@@H](C)O)[C@@H](C)O)[C@@H](C)O)[C@@H](C)O)[C@@H](C)CC [Compound 183]
